Measurements: US10314838B2, “Compositions of buprenorphine and μ antagonists” (priority 2011, dated 2019)
Where two headings read alike, the source gives them in different places.

How the values were obtained:
[1] = Plasma Cmax in patients (LC/MS/MS); conditions: human, 8 mg
Procedure: Samples were analyzed using a 50 μL aliquot volume and a protein-precipitation extraction procedure followed by liquid chromatography/tandem mass spectrometry (LC/MS/MS).
Samples were analyzed using a 400 μL aliquot volume and a solid-phase extraction procedure followed by liquid chromatography/tandem mass spectrometry (LC/MS/MS).

[2] = test system: NAc-sh dopamine and 5-HIAA; experiment: NAc-sh dopamine and 5-HIAA in WKY rats undergoing forced swim test; format: in vivo, rat; conditions: highest dose of Compound 1, buprenorphine 0.1 mg/kg, WKY rats in FST
Procedure: FIG. 6: The effect of Compound-1 on dopamine efflux in WKY rats undergoing forced swim test after treatment with Buprenorphine (0.1 mg/kg).
FIG. 7: The efflux of Compound-1 on 5-Hydroxyindoleacetic acid (5-HIAA) release in WKY rats undergoing the forced swim test after treatment with Buprenorphine (0.1 mg/kg).

human μ opioid receptor = molecular target: T1, human μ opioid receptor (Homo sapiens, UniProt P35372); experiment: biochemical
T1 construct: expressed in transfected cells; membranes used
T1 sequence (P35372 whole entry): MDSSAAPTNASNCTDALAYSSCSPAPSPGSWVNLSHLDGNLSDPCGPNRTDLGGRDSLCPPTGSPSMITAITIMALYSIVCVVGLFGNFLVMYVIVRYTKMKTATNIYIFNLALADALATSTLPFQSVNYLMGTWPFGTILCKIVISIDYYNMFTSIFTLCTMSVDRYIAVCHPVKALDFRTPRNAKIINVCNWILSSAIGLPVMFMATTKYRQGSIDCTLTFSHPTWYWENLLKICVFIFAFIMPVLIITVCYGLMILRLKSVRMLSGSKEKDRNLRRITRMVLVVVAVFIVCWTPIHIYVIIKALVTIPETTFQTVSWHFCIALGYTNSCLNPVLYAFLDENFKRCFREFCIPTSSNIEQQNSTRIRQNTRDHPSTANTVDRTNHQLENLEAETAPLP
Procedure: Other functional assays could also be used based on cAMP or other downstream end-points following receptor activation; however the GTPγS is the preferred approach. […] Since the AAnAI is based on Cmax it can be calculated for any route of administration for the combination.
These values were determined using the GTPγS functional assay.
The [^35S]GTPγS assay measures the functional properties of a compound by quantifying the level of G-protein activation following agonist binding in studies using stably transfected cells, and is considered to be a measure of the efficacy of a compound. Membranes from CHO (Chinese Hamster Ovary) cells that stably expressed the cloned human μ opioid receptor were used in the experiments. […] The assay buffer consisted of 50 mM Tris-HCl, pH 7.4, 3 mM MgCl2, 0.2 mM EGTA, 3 μM GDP, and 100 mM NaCl. The final concentration of [35S]GTPγS was 0.080 nM. Nonspecific binding was measured by inclusion of 10 μM GTPγS. Binding was initiated by the addition of the membranes. After an incubation of 60 min at 30° C., the samples were filtered through Schleicher & Schuell No. 32 glass fiber filters. The filters were washed three times with cold 50 mM Tris-HCl, pH 7.5, and were counted in 2 mL of Ecoscint scintillation fluid.

[3] = Rat plasma Cmax of antagonists given with buprenorphine; conditions: male, sc
Procedure: Male rats weighing between 300-400 grams, the same weight range used in the microdialysis studies, were used for these PK experiments. […] Sample of blood were collected at 5, 15, 30, 60 and 120 minutes post dosing. […] The collection tubes were inverted 10-15 times and then held on ice prior to centrifugation.

[4] = test system: dopamine efflux in the Nucleus Accumbens shell (NAc-sh); experiment: In vivo microdialysis, buprenorphine-induced dopamine efflux; conditions: antagonist plus buprenorphine 0.1 mg/kg SC
Procedure: Experiments were conducted in rats to assess the ability of opioid antagonists to modulate buprenorphine-induced dopamine efflux in the Nucleus Accumbens shell (NAc-sh) region of the mesolimbic region of the brain. Male rats weighing 300-400 grams were used for all studies. To measure the efflux of dopamine in the NAc-sh an in vivo microdialysis method was utilized in free-moving rats. This method allows the sampling of extracellular cerebrospinal fluid (CSF) from specific brain regions of interest and measurement of neurotransmitter concentrations following the analysis of sampled dialysate with HPLC-EC.
Each rat underwent surgical implantation of microdialysis guide cannula (CMA 12, CMA Microdialysis) to facilitate the insertion of the microdialysis probe later on. Rats were anesthetized with a mixture of ketamine/xylazine (80/6 mg/kg IP) and placed in a stereotaxic apparatus. […] Guide cannula were capped with dummy probes until microdialysis probe insertion. On the day prior to experimentation (3-4 days post-surgery), animals were weighed to determine appropriate dose for test articles. A microdialysis probe (CMA 12, 2 mm membrane, CMA microdialysis) was then inserted through the guide cannula. […] Each sample was analyzed via HPLC-EC to determine neurotransmitter concentration of dopamine based upon a six-point standard curve.

[5] = 50 mg dose of naltrexone; cited from earlier work

Q: For NC(=O)c1ccc2c(c1O)[C@]13CCN(CC4CC4)[C@H](C2)[C@]1(O)CCC(=O)C3 [Compound-1], which Cmax [1] is on record?
A: 25.8 ng/mL

Q: What about the Cmax ([1]; other: sublingual) of the same molecule?
A: 69.6 nM

Q: And the “Buprenorphine effect on 5-HIAA” value [2]?
A: complete attenuation of buprenorphine effects

Q: What about the “Buprenorphine effect on NAc-sh dopamine” value [2] of the same molecule?
A: complete attenuation of buprenorphine effects

Q: And the IC50 (human μ opioid receptor)?
A: 0.9 nM

Q: And the Imax (human μ opioid receptor)?
A: >95%

Q: And the Cmax ([3]; 0.3 mg/kg)?
A: 11.8 ng/mL

Q: And the Cmax ([3]; 1 mg/kg)?
A: 75.5 ng/mL

Q: For C=C1CC[C@@]2(O)[C@H]3Cc4ccc(C(N)=O)c(O)c4[C@@]2(CCN3CC2CC2)C1 [Compound-10], which IC50 (human μ opioid receptor) is on record?
A: 0.23 nM

Q: What about the Cmax ([3]; 0.03 mg/kg) of the same molecule?
A: 2.24 ng/mL

Q: And the Cmax ([3]; 0.1 mg/kg)?
A: 18.1 ng/mL

Q: What about the Cmax ([3]; 0.3 mg/kg) of the same molecule?
A: 29.5 ng/mL

Q: For C=C1CC[C@@]2(O)[C@H]3Cc4ccc(O)c5c4[C@@]2(CCN3CC2CC2)[C@H]1O5 [Nalmefene, nalmefene], which “NAc-sh dopamine efflux induced by buprenorphine” value [4] is on record?
A: more potent

Q: What about the Cmax ([3]; 0.1 mg/kg) of the same molecule?
A: 14.1 ng/mL

Q: What about the Cmax ([3]; 0.3 mg/kg) of the same molecule?
A: 25.6 ng/mL

Q: And the Cmax ([3]; 1 mg/kg)?
A: 162 ng/mL

Q: Which results are given for O=C1CC[C@@]2(O)[C@H]3Cc4ccc(O)c5c4[C@@]2(CCN3CC2CC2)[C@H]1O5 [Naltrexone, naltrexone]?
A: Cmax [5]: approximately 10 ng/mL; Cmax ([3]; 0.1 mg/kg): 19.3 ng/mL; Cmax ([3]; 0.3 mg/kg): 76.9 ng/mL; Cmax ([3]; 1 mg/kg): 169 ng/mL
